From patent US6355629B2, “Prodrugs with enhanced penetration into cells” (D-Pharm Ltd., priority 1993, dated 2002)
Read-outs that look alike come from different tables or passages of the source.

Key:
[1] = test system: metrazol induced convulsions and death; assay: Metrazol anticonvulsant test (prevention of convulsions and/or death); assay type: in vivo, mice; details: for ED100: mice, one hour before s.c. metrazol (80 mg/kg), 30 minutes observation, TVA16 i.p.
Experimental: A test sample of TVA16 was administered i.p. (0.01 to 100 mg/kg) to a group of three mice, one hour before an s.c. dose of metrazol (80 mg/kg). An effective dose was the amount which prevented convulsions (scored 2 points per animal) and/or death (scored 1 point per animal) in the subsequent 30 minutes.

[2] = test system: pilocarpine induced epileptic seizures; assay: Pilocarpine based model of experimental epilepsy; assay type: in vivo, rats
Experimental: Acetylcholine, acetylcholinesterase inhibitors and acetylcholine analogues are effective epileptogenic agents when applied intracerebrally or systematically (see ref. in Leite et al., Neurosci. & Biobeh. Rev., 1990, 14:511-17). […] Systemic injections of the pilocarpine, a potent muscarinic cholinergic agonist, are capable of producing a sequence of behavioral alterations including stirring spells, facial automatisms and motor limbic seizures, that develop over 1-2 hours and build progressively into limbic status and following by general status epilepticus.
Immediately following injection of pilocarpine, akinesia, ataxic lurching, facial automatism and […] dominated the animals' behavior. Further development of epileptic events is dose-dependent. Administration of pilocarpine in doses of 300-350 mg/kg causes appearance of limbic seizures with rearing, forelimb clonus, salivation, intense masticatory jaw movements and falling. Motor limbic seizures commenced after 20-30 min., recurred every 2-8 min and lead to status epilepticus. Increase of the dose of pilocarpine up-to 400mg/kg abolished limbic seizures and after 15-25 min of initial behavioral alterations causes fatal general tonic-clonic convulsions. We consider this dose as the LD100.

[3] = test system: lymphocytes from donor blood and from the blood of an asthmatic patient; assay: Intracellular free [Ca2+]i by flow cytometry with fluo-3/AM; assay type: cell-based, human; details: in either stimulated or untreated cells
Experimental: Intracellular free [Ca^2+]i content was monitored by flow cytometry using the Ca^2+-sensitive dye fluo-3/AM (Molecular Probe Inc., OR)(Minta, Kao and Tsien, 1989, J. Biol. Chem. 264:8171-8178). Cells obtained from donor blood and those from the blood of an asthmatic patient were further washed twice in DMEM and resuspended to a concentration of 10^7 cells/ml. Fluo-3/AM (1 mM) was prepared in DMSO augmented with the nonionic surfactant Pluronic F-127 (Wyandotte Corp., Mich.). Aliquots of fluo-3/AM stock solution were added to cell suspensions in DMEM/HEPES at a final concentration of 3 μM (loading buffer). Loading was allowed to proceed for 30 min. at 37° C. and continued for 1 hour at 23° C. with gentle agitation. Cells were then adjusted to desired concentrations using fresh DMEM/HEPES, supplemented with 2% horse serum. Autofluorescence was eliminated by setting the threshold sensitivity above the levels obtained in absence of dye. Fluorescence intensity data was collected from 5000 single cells and values were expressed as arbitrary fluorescence units. Prodrug-1 (1 mM) was prepared in DMSO and added when appropriate at a final concentration of 3 μM to the cells for 5 min. prior to calcium treatment.
Lymphocytes from donor blood and from the blood of an asthmatic patient were exposed to prodrug-1. […]

[4] = test system: metrazol induced seizures (myoclonic jerks); assay: Metrazol minimal seizures test; assay type: in vivo, BALB/c mice; details: 30 min before Metrazol s.c.
Experimental: Testing of DP16 as a possible antiepileptic drug was performed on 3-4 week old male BALB/c mice (18-27 g). Animals were maintained on an adequate diet and allowed free access to food and water except briefly during the experimental period. Animals were separately housed for one hour in transparent plastic cages before treatment and during the experimental period. Drugs were dissolved in normal saline with injection volume adjusted to 0.01 ml/g of body weight. DP16 was administered i.p., in doses ranging from 0.1 to 300 μg/kg: (0.1 μg/kg: n=10, 5 μg/kg: n=10, 25 μg/kg: n=20, 75 μg/kg: n=20, 150 μg/kg: n=20, and 300 μg/kg: n=10 animals respectively). Control animals received injections i.p. of normal saline. DP16 or saline administration followed in 30 minutes by Metrazol ([…], s.c.). […] Absence or relative delay of myoclonic jerks (MJ) in the experimental group was considered as indication of possible antiepileptic activity. Data were subjected to chi-square analysis with the computer statistic package “StatViewII”,

[5] = test system: rat model of permanent cerebral ischemia; assay: Bilateral permanent cerebral ischemia model (common carotid artery ligation); assay type: in vivo; details: rats, i.p. 0.001-0.1 mg/kg following artery ligation; p<0.01; FIG. 2
Experimental: Bilateral ligation of the common carotid arteries is the simplest and most direct approach for inducing permanent partial ischemia. In the rats there is almost 64% mortality 24 h later. The causes of mortality are largely brain swelling (edema) and focal lesions (infarcts). Permanent partial global is achieved by isolation of the common carotid artery through an incision on the ventral surface of the neck. The salivary glands are moved laterally and the carotid sheath exposed. Both the vagus and sympathetic nerves are separated from the common carotid artery, which is then permanently ligated. Sprague-Dawley rats (250-300 g) were anesthetized with halothane or by intramuscular injection of 0.1 ml Ketamine (0.1 g/ml, Parke Davis UK) and 0.1 ml Rompun (2%, Bayer, FRG) per 300 g body weight. DP16 was administered intraperitoneally (i.p., 0.001-0.1 mg/kg) when appropriate following the artery ligation. Every experimental and control group included 14 male rats. Statistical analysis was performed according to t-test criteria.

[6] = test system: rat hearts; assay: Ex-vivo rat heart Low-flow-Reperfusion Langendorff model
Source text: Low-flow Reperfusion Langendorff's heart (Meely and Rovetto, 1975, METHODS IN ENZYMOLOGY, v39:43-60) is an established ex vivo model of a human ischemic heart. A severe decrease in perfusion pressure (PP) below 20 mm Hg (low-flow period) causes sinus bradycardia culminating by stable AV block (“AVB”; 10 out of 11 hearts) frequently followed by ventricular arythmia. Restoration of perfusion pressure causes paroxysmal tachyarrhythmia followed by irreversable ventricular fibrillation (VF).
The experiments were preformed ex vivo on 39 rat hearts. Heart electrical activity and perfusion pressure were stable following 15 min., each. Perfusion buffer was supplemented with DP16 (1.0 μg/l) following the stable AV block during low flow perfusion and during the Reperfusion period.
The experimental protocol documented by FIG. 16 included periods of Normal Coronary Flow (FIG. 6, NF, panel 1) followed by Low-Flow (LF) and then by Normal flow-reperfusion (NF-Rp) (panels 2 and 3, respectively).
The experiments were performed by addition of DP16 (0.5-500 μg/l) to the perfusion buffer after AV block establishment.

[7] = test system: isolated hearts from pilocarpine-treated rats; assay: Perfusion-Hypoxia-Reperfusion isolated Langendorff heart from pilocarpine-treated rats; design: species or system Sprague-Dawley rats; details: treatment prior to pilocarpine; initial and final periods of perfusion
Experimental: (§1) Adult (2-3 months) male Sprague-Dawley rats were used for all experiments. They were fed with standard briquette chow with water ad libitum and were maintained in standard plastic cages (4-5 individuals in each cage) under natural illumination. A pilocarpine-scopolamine epileptic status model (pilocarpine) was performed as described earlier. In a group of 23 rats, pilocarpine was administered i.p. in different doses which ranged from 100 to 400 mg/kg body weight (B/W) for different periods of time; a second group of 17 rats was treated with DP16 prior to pilocarpine administration, wherein the DP16 was injected for 30 min before pilocarpine in the next dose range and its effect was investigated in the ensuing periods.
(§2) In vivo ECG (Birtcher-Cardio-Tracer, model 375, USA) in three standard leads were recorded under ketamine anesthesia (3.3 mg/ky Imalgene 100, Rhone Merieux, France and 7 mg/kg Rompun, Bayer Leverkusen, Germany, i.m.). […] In the case of constant PP the volume of effluent flow was measured on electron balance (Precisa 1000C-3000D, Switzerland). […] Direct ECG were recorded from ventricular apex (lead 1), auriculum (lead 2) and in-between (lead 3). The coronary vessel's perfusion resistance (CVPR) was calculated in arbitrary units as follows: PP/flow/heart weight. […]

[8] = test system: isoproterenol induced myocardial damage; assay: Isoproterenol induced myocardial damage; assay type: in vivo, Sprague-Dawley rats
Experimental: Administration of the potent β-adrenoreceptor agonist isoproterenol (ISO) is commonly accepted model of experimental myocardial pathology. The cardioprotective effect of DP16 was tested on 82 Sprague-Dawley female rats weighing 250-350 g. Myocardial damage was induced in rats by two consecutive injections of ISO ([…], s.c.). When appropriate, the injections of ISO were followed in 30 and 180 minutes by DP16 (0.01 μg/kg, i.p.). The effect of DP16 was estimated by ECG analysis and determination of serum glutamate-oxaloacetate transaminase (SGOT) and lactatdehydrogenase (LDH) activity. Mortality of control rats after ISO intervention was 17.1±5.9% (7 out of 41). […] Pathological signs on ECG were aggravated during the experimental period. […] Administration of DP16 decreased mortality in 2 cases (2 out of 30). […] Pathological displacement of the ST-segment was found only on 28 and 40% of ECG (in 24 and in 48 hours following ISO respectively).

[9] = test system: post-pilocarpine-seizure-cardiopathy (PSCP); assay: Post-pilocarpine-seizure cardiopathy (PSCP) model, in vivo ECG; design: species or system Sprague-Dawley rats
Experimental: as §1, §2

## CCCC(C)(COC(N)=O)COC(N)=O [meprobamate]
[1]; Mus musculus, read-out: ED100
  ED100: 200 mg/kg

## CCC1(c2ccccc2)CCC(=O)NC1=O (stereo not drawn) [glutethimide]
[1]; Mus musculus, read-out: ED100
  ED100: 150 mg/kg

## CCC1(c2ccccc2)C(=O)NC(=O)NC1=O [phenobarbital]
[1]; Mus musculus, read-out: ED100
  ED100: 50 mg/kg

## CCCCCCCCCCCCCCCC(=O)OCC(COP(=O)([O-])OCC[N+](C)(C)C)OC(=O)C(CCC)CCC (stereo not drawn) [TVA16]
[1]; FIG. 8, doses as mg of valproic acid per kg body weight
  dose response curve compared to valproic acid itself: improvement
[1]; from Table 1
  potency relative to sodium valproate: more than 500 ×
[1]
  ED100: 20 mg/kg

## CC[C@@H]1C(=O)OC[C@@H]1Cc1cncn1C [pilocarpine, reference compound]
[2]; rats
  LD100 (fatal general tonic-clonic convulsions): 400 mg/kg

## C[C@]12N[C@H](Cc3ccccc31)c1ccccc12 [MK-801]
[1]; Mus musculus, read-out: ED100
  ED100: 0.5 mg/kg

## O=C(O)CN(CC(=O)O)c1ccccc1OCCOc1ccccc1N(CC(=O)O)CC(=O)O [BAPTA, 1,2-bis-(2-aminophenoxy)ethane-N,N,N′,N′-tetraacetic acid]
[3]
  reducing the intracellular calcium levels: ineffective

## CCCCCCCCCCCCCCCC(=O)OCC(COP(=O)([O-])OCC[N+](C)(C)C)OC(=O)CN(CC(=O)O)c1ccccc1OCCOc1ccccc1N(CC(=O)O)CC(=O)O (stereo not drawn) [DP16]
[2]; FIG. 4, reduction in fatal seizures
  dose range with dose dependent therapeutic effects: 10^−8 to 10^−5 mg/kg
[2]; administered prior to pilocarpine
  effect on death and epileptiform manifestations: prevented death in the animals and decreased epileptiform manifestations
[2]; pilocarpine 400 mg/kg, rats, 0.5 mg/kg/5×10^−7 mg/kg
  estimated therapeutic index (ET): 1×10^6
[4]; 0.1 μg/kg i.p.
  response to metrazol (myoclonic jerks): same response to metrazol as control
[4]; 5 to 300 μg/kg i.p., p<0.001
  response to metrazol (myoclonic jerks): significant protective effect
[5]
  decrease of post-ischemic mortality compared with control: 250%
[6]; 1.0 μg/l in perfusion buffer after AV block establishment
  complete restoration of AV synchronism: 11 out of 16
[6]; 1.0 μg/l, additional cases of the 16 experiments
  decreased level of AVB and prevented ventricular fibrillation: 5 cases
[6]; FIG. 7
  efficiency in resolving atrio-ventricular blockade and preventing ventricular fibrillation compared to BAPTA and BAPTA-AM: much better efficiency
[6]; reperfusion period
  full restoration of the sinus rhythm during reperfusion: 11 out of 16
[7]
  coronary vessel's perfusion resistance (CVPR) regulation: prevents damage of CVPR regulation
[8]; 0.01 μg/kg i.p.
  percentage of animals exhibiting abnormal level of SGOT and LDH activity: substantially decreased
[8]; 0.01 μg/kg i.p. 30 and 180 minutes after ISO, control 7 out of 41
  mortality: 2 out of 30
[8]; 24 hours following ISO
  pathological displacement of the ST-segment, share of ECG: 28%
[8]; 48 hours following ISO
  pathological displacement of the ST-segment, share of ECG: 40%
[9]; 3-14 days after pilocarpine, p<0.01 vs not protected
  ECG alterations in the phase of stabilization: prevents the appearance of ECG alterations
[9]; DP16 prior to pilocarpine, 24h after pilocarpine
  normalized electrical activity (ECG) at the acute stage of PSCP: 5 out of 7

## CN1C(=O)CN=C(c2ccccc2)c2cc(Cl)ccc21 [diazepam]
[1]; Mus musculus, read-out: ED100
  ED100: 2.5 mg/kg
